How the values were obtained:
Assay type in all cases: in vivo
Fall Webworm Larva = assay: Insecticidal activity test on fall webworm larva (spray)
Description: 3. Insecticidal Activity Test on Fall Webworm Larva
The progress of the mortality of fall webworm larva was investigated after uniformly spraying feed trees (cherry) and fall webworm larva with spraying solutions at prescribed concentrations using a sprayer.

[1] = test system: Adult Japanese Pine Sawyer; assay: Insecticidal activity test on Japanese pine sawyer (sprayed pine feed trees)
Description: 1. Insecticidal Activity Test on Japanese Pine Sawyer
After uniformly spraying pine feed trees with spraying solutions at prescribed concentrations using a sprayer, adult Japanese pine sawyers were used in testing to investigate the progress of their mortality and degree of infestation.

Pine Caterpillar Larva = assay: Insecticidal activity test on pine caterpillar larva (spray)
Description: 2. Insecticidal Activity Test on Pine Caterpillar Larva
The mortality of pine caterpillar larva was investigated after uniformly spraying pine feed trees and pine caterpillar larva with spraying solutions at prescribed concentrations using a sprayer.

SMILES | Mortality (%) After 1 day (Fall Webworm Larva; spraying solution 100 ppm) [%] | Mortality (%) After 3 days (Fall Webworm Larva; spraying solution 100 ppm) [%] | Mortality (%) After 7 days (Fall Webworm Larva; spraying solution 100 ppm) [%] | Mortality (%) After 1 day (Fall Webworm Larva; spraying solution 200 ppm) [%] | Mortality (%) After 3 days (Fall Webworm Larva; spraying solution 200 ppm) [%] | Mortality (%) After 7 days (Fall Webworm Larva; spraying solution 200 ppm) [%] | Average infested area (cm2) ([1]; spraying solution 5 ppm) | Mortality (%) After 1 day ([1]; spraying solution 5 ppm) [%] | Mortality (%) After 3 days ([1]; spraying solution 5 ppm) [%] | Mortality (%) After 7 days ([1]; spraying solution 5 ppm) [%] | Average infested area (cm2) ([1]; spraying solution 10 ppm) | Mortality (%) After 1 day ([1]; spraying solution 10 ppm) [%] | Mortality (%) After 3 days ([1]; spraying solution 10 ppm) [%] | Mortality (%) After 7 days ([1]; spraying solution 10 ppm) [%] | Average infested area (cm2) ([1]; spraying solution 20 ppm) | Mortality (%) After 1 day ([1]; spraying solution 20 ppm) [%] | Mortality (%) After 3 days ([1]; spraying solution 20 ppm) [%] | Average infested area (cm2) ([1]; spraying solution 40 ppm) | Mortality (%) After 1 day ([1]; spraying solution 40 ppm) [%] | Mortality (%) After 1 day (Pine Caterpillar Larva; spraying solution 100 ppm) [%] | also measured
COP(=S)(OC)Oc1ccc([N+](=O)[O-])c(C)c1 [Fenitrothion, fenitrothion] | 0 | 10 | 20 | 30 | 60 | 70 | 23.3 | 10 | 10 | 10 | 8.6 | 0 | 50 | 80 | 2.4 | 20 | 70 | 1.6 | 90 | 10 | Mortality (%) After 1 day (Fall Webworm Larva; spraying solution 500 ppm): 80%; Mortality (%) After 3 days (Fall Webworm Larva; spraying solution 500 ppm): 100%; Mortality (%) After 1 day (Fall Webworm Larva; spraying solution 1000 ppm): 100%; Mortality (%) After 7 days ([1]; spraying solution 20 ppm): 100%; Mortality (%) After 3 days ([1]; spraying solution 40 ppm): 100%; Mortality (%) After 3 days (Pine Caterpillar Larva; spraying solution 100 ppm): 10%; Mortality (%) After 7 days (Pine Caterpillar Larva; spraying solution 100 ppm): 20%; Mortality (%) After 1 day (Pine Caterpillar Larva; spraying solution 200 ppm): 30%; Mortality (%) After 3 days (Pine Caterpillar Larva; spraying solution 200 ppm): 60%; Mortality (%) After 7 days (Pine Caterpillar Larva; spraying solution 200 ppm): 60%; Mortality (%) After 1 day (Pine Caterpillar Larva; spraying solution 500 ppm): 80%; Mortality (%) After 3 days (Pine Caterpillar Larva; spraying solution 500 ppm): 100%; Mortality (%) After 1 day (Pine Caterpillar Larva; spraying solution 1000 ppm): 100%
CN1COCN(Cc2cnc(Cl)s2)/C1=N\[N+](=O)[O-] [Thiamethoxam, thiamethoxam] | 20 | 80 | 80 | 30 | 90 | 100 | 1.8 | 10 | 60 | 100 | 0.5 | 70 | 80 | 100 | 0.4 | 80 | 100 | 0.3 | 100 | 50 | Mortality (%) After 1 day (Fall Webworm Larva; spraying solution 50 ppm): 0%; Mortality (%) After 3 days (Fall Webworm Larva; spraying solution 50 ppm): 30%; Mortality (%) After 7 days (Fall Webworm Larva; spraying solution 50 ppm): 50%; Mortality (%) After 1 day (Fall Webworm Larva; spraying solution 300 ppm): 80%; Mortality (%) After 3 days (Fall Webworm Larva; spraying solution 300 ppm): 100%; Mortality (%) After 1 day (Pine Caterpillar Larva; spraying solution 20 ppm): 10%; Mortality (%) After 3 days (Pine Caterpillar Larva; spraying solution 20 ppm): 40%; Mortality (%) After 7 days (Pine Caterpillar Larva; spraying solution 20 ppm): 50%; Mortality (%) After 1 day (Pine Caterpillar Larva; spraying solution 50 ppm): 20%; Mortality (%) After 3 days (Pine Caterpillar Larva; spraying solution 50 ppm): 60%; Mortality (%) After 7 days (Pine Caterpillar Larva; spraying solution 50 ppm): 80%; Mortality (%) After 3 days (Pine Caterpillar Larva; spraying solution 100 ppm): 80%; Mortality (%) After 7 days (Pine Caterpillar Larva; spraying solution 100 ppm): 100%; Mortality (%) After 1 day (Pine Caterpillar Larva; spraying solution 200 ppm): 80%; Mortality (%) After 3 days (Pine Caterpillar Larva; spraying solution 200 ppm): 100%

Reference: patent publication US8999359B2, “Composition that prevents damage to trees by harmful insects and a prevention method thereof” (Syngenta Crop Protection, Inc., priority 2004, dated 2015)
